{"source": "patent US9994862B2", "about": "“Rice resistant to HPPD and ACCase inhibiting herbicides” (priority 2011, dated 2018)", "key": {"line PL1214418M2-73001": {"test_system": "line PL1214418M2-73001", "assay": "Mesotrione trait tolerance trial", "format": "in vivo, rice", "details": "0.5x to 4x of 210 gmai/ha at 4 leaf stage, evaluated 4 weeks after application", "from_the_text": "During the breeding process to develop new lines (PL1214418M2-80048 and PL1214418M2-73009) with resistance/tolerance to HPPD and ACCase herbicides, two other lines were also investigated to determine the contribution of the HPPD tolerance mutation and the HPPD tolerance native gene. The line PL1214418M2-73001 carries ACCase tolerance and only the HPPD tolerance, whereas […] PL1214418M2-73013 carries ACCase tolerance and only the HPPD native tolerance gene. These selections allow the estimation of the tolerance effect of each of the two genes required for tolerance to HPPD herbicides. The tolerance effect of each gene was measured by growing the lines in single rows including the newly developed line PL1214418M2-73009 that carries both the HPPD tolerance from the mutation and the non-induced tolerance, the HPPD tolerant line ML0831266-0309, and the non-induced parent line P1003. The field plots were sprayed at the 4 leaf stage with the HPPD herbicide mesotrione at 0.5×, 1×, 2×, and 4× multiples of the labeled application rate of 210 gmai/ha.\nThe plots were evaluated 4 weeks after the herbicide was applied. […] The two genes also appear to function in an additive manner as only by combining the two in the new line PL1214418M2-73009 does the tolerance level become equivalent to the original mutant line ML0831266-0309."}, "[1]": {"test_system": "F2 individuals derived from a cross of ML0831266-03093 and ML0831265-01493", "assay": "Mesotrione herbicide bioassays on segregating F2 population", "format": "in vivo, rice", "description": "The mesotrione tolerant line ML0831266-03093 is tolerant to rates of 420 gm ai/ha and even a dual application of mesotrione first at a rate of 105 gm ai/ha followed three weeks later by an application of 630 gm ai/ha. […] The cross is made and the resulting F1 seeds are harvested, planted, and allowed to self to produce a F2 population. The F2 population is grown and tissue is collected from individual plants. Each F2 plant and parental lines are tested with a set of 192 SNP markers identified as being polymorphic between the two mutant lines ML0831266-03093 and ML0831265-01493. The set of polymorphic markers was identified as evenly spaced across the rice genome after testing both parental lines with a set of 796 SNP markers. All 192 markers including two found with linkage to target traits were selected from the 44 k SNP set described by Zhao et al. 2011.\n(§1) Seedlings of size 3 to 4 leaves are sprayed with mesotrione herbicide. In one set of 89 plants mesotrione is first applied at 105 gm ai/ha killing 23 plants. Both the mutant line control ML0831266-03093 and the unmutated line P1003 survived the herbicide application while the unmutated line R0146 was killed. The surviving plants including some additional plants making a total of 95 are then sprayed with another treatment of mesotrione at a rate of 630 gm ai/ha killing or injuring 67 while 28 survived. (FIG. 23) The surviving ratio of plants to those killed or injured fits a one quarter ratio with a chi squared value of 1.03, well within the expected for a single recessive gene. Another set of F2 individuals of size 78 individuals are sprayed with a single application of mesotrione herbicide at a rate of 420 gm ai/ha resulting in 26 plants surviving also fitting in the expected one quarter ratio for a single recessive gene with a chi square value of 2.88 (Table 2)."}, "unmutated line P1003": {"test_system": "unmutated line P1003", "assay": "Mesotrione tolerance trials / herbicide bioassay", "format": "in vivo, rice", "from_the_text": "Selection of material inheriting mesotrione tolerance is accomplished by a simple herbicide bioassay. A high rate of mesotrione (at least 420 gm ai/ha) is applied allowing differentiation of heterozygous individuals from homozygous individuals and the tolerance level of the […] line from the inherent tolerance level in the background of some types of rice. In one example a rate of 105 gm ai/ha is applied followed three weeks later by a second application of 630 gm ai/ha. In another example a rate of 420 gm ai/ha is applied in a single application. Yet another example entails applying the herbicide at a rate of 630 gm ai/ha. Herbicide applications are done at the three to four leaf stage of seedling growth. The ideal situation is to have also planted near or within the plants to be selected a set of plants from the original mutant mesotrione tolerant donor line ML0831266-03093, (FIG. 18A) a row of plants of the wild-type of the […] line, P1003 (FIG. 18B), and a row of the line involved as the other parent in the cross (FIG. 18C). These control lines allow easy differentiation for inheritance of the tolerance provided by the ML0831266-03093 mutant line through comparison of the response in the plants to be selected with the control lines. Only plants that live and are relatively healthy will have inherited and be homozygous for the tolerance level provided by the ML0831266-03093 mutant line (FIG. 18A).\nThe mutant line is planted in rows or alternatively whole plots are planted and rows of the unmutated line (P1003) and other types of rice or whole plots are planted. Mesotrione is applied pre-emergence or alternatively it is applied post-emergence at the three to four leaf stage of the rice plants. Various rates of mesotrione are applied pre-emergence, pre-emergence followed by post-emergent, or post-emergent with a single or sequential application. Post-emergent applications are applied at the 3-4 leaf stage of the rice.\nas §1"}, "line PL1214418M2-80048": {"test_system": "line PL1214418M2-80048", "assay": "Herbicide tolerance of the combined HPPD and ACCase line", "parameters": "species or system rice", "details": "in vivo", "from_the_text": "An early maturing group of plants was harvested as early as possible and the seeds planted in the greenhouse to help quickly advance to the F4 generation. Selections on the F3 plants were made by molecular markers flanking the HPPD tolerance mutation and native tolerance the ACCase functional mutation. Homozygous plants for all the selected genomic regions were advanced to the F5 generation. The F5 seed was confirmed to carry tolerance to ACCase herbicides and the HPPD herbicide mesotrione. Among the F5 lines PL1214418M2-80048 was selected due to a high seed yield and being homozygous for the ACCase tolerance mutation at position G2096S, the HPPD tolerance mutation, and the HPPD tolerance native gene. Seed from the line PL1214418M2-80048 was deposited at the ATCC and given a deposit number PTA-121362 (see Table 8).\nIndividuals with tolerance to both mesotrione and ACCase herbicides were selfed to produce F3 families and further selected for other important agronomic characters. The F3 lines were selfed and purified to derive a new line or variety with dual resistance to mesotrione and ACCase herbicides. Such lines are highly valuable as the use of both herbicides provides more complete and broad-spectrum weed control. […]"}, "[2]": {"details": "one application at 105 gai/ha followed by second application of 630 gai/ha"}, "[3]": {"details": "single application of mesotrione at 105 gai/ha"}, "[4]": {"details": "single application of mesotrione at 420 gai/ha"}}}
{"smiles": "CS(=O)(=O)c1ccc(C(=O)C2C(=O)CCCC2=O)c([N+](=O)[O-])c1", "note": "[mesotrione]", "values": [{"measurement": "tolerance to mesotrione compared with P1003 and ML0831266-0309", "setting": "line PL1214418M2-73001", "value": "intermediate tolerance"}, {"measurement": "number of susceptible plants, observed", "setting": "[1]; [2]", "value": 67, "unit": "plants"}, {"measurement": "number of tolerant plants, observed", "setting": "[1]; [2]", "value": 28, "unit": "plants"}, {"measurement": "number of susceptible plants, observed", "setting": "[1]; [3]", "value": 23, "unit": "plants"}, {"measurement": "number of tolerant plants, observed", "setting": "[1]; [3]", "value": 64, "unit": "plants"}, {"measurement": "number of susceptible plants, observed", "setting": "[1]; [4]", "value": 52, "unit": "plants"}, {"measurement": "number of tolerant plants, observed", "setting": "[1]; [4]", "value": 26, "unit": "plants"}, {"measurement": "survival after mesotrione", "setting": "unmutated line P1003; higher rates", "value": "killed or severally injured"}, {"measurement": "survival after mesotrione", "setting": "unmutated line P1003; low rate 105 gm ai/ha", "value": "survived"}, {"measurement": "response of the rice to mesotrione", "setting": "unmutated line P1003; one application at 105 gai/ha followed by a second application of 630 gai/ha", "value": "severely injured"}, {"measurement": "tolerance to the herbicide", "setting": "line PL1214418M2-80048", "value": "tolerance"}]}
